Molecules are shown by their SMILES. Activity calls are given as the source filed them. No cut-off for these calls is given here.

Here are results for one compound from ChEMBL document CHEMBL1138447, “New Rev-export inhibitor from Alpinia galanga and structure-activity relationship” (Bioorg Med Chem Lett, 2009).

The subject of the assay is HeLa. The assay can be described thus: Inhibition of hemagglutininin-tagged HIV1 Rev protein nuclear export in human HeLa cells assessed as localization at 5 uM by indirect fluorescent antibody technique. As to conditions: Human immunodeficiency virus 1. It is filed as cell-based.

Turning to `C=C[C@H](OC(C)=O)c1ccc(OC(C)=O)cc1`, the outcome was Active.
